Tests used:
[1] = tested on: rat globules (red corpuscles); assay: In vitro anti-sludge activity, curative procedure (protamine sulfate); type: cell-based; conditions: 25 μg
Procedure: (§1) Said activity was investigated in vitro and in vivo in rats.
(§2) Thrice washed rat globules are diluted to 1/250 in physiological saline. In each of 5 tubes are placed 0.6 ml of this suspension and 0.2 ml physiological saline. To each tube is then added 0-25-50-100 and 200 μg, respectively, of the test derivative contained in 0.2 ml solution. After incubation for one hour at 37° C., 0.2 ml of a solution containing 125 μg/ml protamine sulfate are added, after which the tube is then incubated again for 0.5 hour at 37° C. The globules of each tube are then examined with a Mallases cell, and the percent free globules and the percent aggregates formed by 2, 3, 4, 5 etc.. globules is then recorded.
The experiment was repeated according to a "curvative" procedure; the red corpuscles were first contacted with protamine sulfate and, after incubation for 0.5 hour, 0.2 ml containing 25 μg of test derivative were added thereto, which operation is followed by another incubation for one hour at 37° C. The results obtained are reported in Table III, in which the percent agglomerates as a function of size is indicated.

[2] = tested on: Collagen-induced blood-platelet aggregation; assay: Collagen-induced blood-platelet aggregation; type: in vivo, Wistar rats; conditions: Rattus norvegicus, po; 100 mg/kg orally, rats, 3 hours after treatment; read-out: Percent inhibition of blood-platelet aggregation, Collagen
Procedure: (§3) A blood sample is taken from the jugular vein of Wistar rats. From this citrated blood and after centifugation, a plasma is reconstituted which contains 600,000 ± 20,000 blood-platelets per ml, which plasma is then used in all aggregation determinations.
(§4) 0.4 ml plasma is placed in a siliconized tube provided with a magnet bar, also siliconized. The tube is introduced into an aggregometer connected to an apparatus which records optical density variations. When light transmission has attained a stable value, 0.5 ml of a solution containing 10 μM A.D.P. (adenosinediphosphate) is added to the tube.
(§5) Blood-platelet aggregation induces an increase of light transmission, followed by a decrease subsequent to the deaggregation phase.
The A.D.P. solution is substituted with a collagen (bovine tendon extract) solution.
(§6) Different groups of 20 rats each are used, each group being orally administered 100 mg/kg of a test derivative.

[3] = tested on: A.D.P. induced blood-platelet aggregation; assay: A.D.P. induced blood-platelet aggregation; type: in vivo, Wistar rats; conditions: Rattus norvegicus, po; 100 mg/kg orally, rats, 3 hours after treatment, 10 μM A.D.P. solution; read-out: Percent inhibition of blood-platelet aggregation, A.D.P.
Procedure: as §3, §4, §5, §6

[4] = tested on: rat globules (red corpuscles); assay: In vitro anti-sludge activity, preventive treatment (protamine sulfate); type: cell-based
Procedure: as §1, §2

In the case of COC(=O)C1Cc2sc(Cl)cc2CN1 (centres unmarked) [Example 29], the “percent agglomerates, size 2” value [1] is reported as 9%, the “percent agglomerates, size 3” value [1] is reported as 2% and the “percent agglomerates, size 4” value [1] is reported as 1%. For the same compound, the “percent agglomerates, size 5” value [1] was 0%, the “percent agglomerates, size 6” value [1] was 0% and the “percent agglomerates, size 7” value [1] was 0%. For the same compound, the “percent agglomerates, size 8” value [1] was 0%, the “percent agglomerates, size 9” value [1] was 0% and the “percent agglomerates, size 10” value [1] was 0%. For the same compound, the “percent free red corpuscles (size of agglomerates 1)” value (“percent free red corpuscles” for short) [1] was 87%, the inhibition at 100 mg/kg [2] was 92.7% and the inhibition at 100 mg/kg [3] was 62.7%.
O=C(O)C1Cc2sc(Cl)cc2CN1 (centres unmarked) [Example 4, 6-Carboxy-2-chloro-4,5,6,7-tetrahydro-thieno[3,2-c]pyridine] was tested, and the inhibition at 100 mg/kg [2] was 91.3% and the inhibition at 100 mg/kg [3] was 63.1%.
CCOC(=O)C1Cc2sccc2CN1C (centres unmarked) [Example 28, 5-Methyl-6-ethoxycarbonyl-4,5,6,7-tetrahydro-thieno[3,2-c]pyridine] was tested, and the inhibition at 100 mg/kg [2] was 90.2% and the inhibition at 100 mg/kg [3] was 60.8%.
With O=C(OCc1ccccc1F)[C@H]1[C@@H](O)c2ccsc2CN1Cc1ccccc1F (relative stereo) [Example 10, 4-Hydroxy-5-o-fluorobenzyloxycarbonyl-6-o-fluorobenzyl-4,5,6,7-tetrahydro-thieno[2,3-c]pyridine] the inhibition at 100 mg/kg [2] was 92.1% and the inhibition at 100 mg/kg [3] was 62.2%.
With O=C(OCc1ccccc1)[C@H]1[C@@H](O)c2ccsc2CN1Cc1ccccc1 (relative stereo) [Example 11, 4-Hydroxy-5-benzyloxycarbonyl-6-benzyl-4,5,6,7-tetrahydro-thieno[2,3-c]pyridine] the inhibition at 100 mg/kg [2] was 91.6% and the inhibition at 100 mg/kg [3] was 60.5%.
O=C(OCc1ccccc1Cl)[C@H]1[C@@H](O)c2sccc2CN1Cc1ccccc1Cl (relative stereo) [Example 8, 5-o-Chlorobenzyl-6-o-chlorobenzyloxycarbonyl-7-hydroxy-4,5,6,7-tetrahydro-thieno[3,2-c]pyridine] showed an inhibition at 100 mg/kg [2] of 90.4% and an inhibition at 100 mg/kg [3] of 61.8%.
Compound O=C(OCc1ccccc1)C1Cc2ccsc2CN1Cc1ccccc1 (centres unmarked) [Example 20, 5-Benzyloxycarbonyl-6-benzyl-4,5,6,7-tetrahydro-thieno[2,3-c]pyridine] has an inhibition at 100 mg/kg [2] of 91.5% and an inhibition at 100 mg/kg [3] of 60.4%.
Compound COC(=O)C1Cc2sc(Cl)cc2CN1Cc1ccccc1Cl (centres unmarked) [Example 30, 2-Chloro-5-o.chlorobenzyl-6-methoxycarbonyl-4,5,6,7-tetrahydro-thieno[3,2-c]pyridine] has an inhibition at 100 mg/kg [2] of 93% and an inhibition at 100 mg/kg [3] of 62.4%.
In the case of O=C(O)C1Cc2sc(Cl)cc2CN1Cc1ccccc1 (centres unmarked) [Example 26, 5-Benzyl-6-carboxy-2-chloro-4,5,6,7-tetrahydro-thieno[3,2-c]pyridine], the “percent agglomerates, size 2” value [1] is reported as 12%, the “percent agglomerates, size 3” value [1] is reported as 2% and the “percent agglomerates, size 4” value [1] is reported as 0%. For the same compound, the “percent agglomerates, size 5” value [1] was 0%, the “percent agglomerates, size 6” value [1] was 0% and the “percent agglomerates, size 7” value [1] was 0%. For the same compound, the “percent agglomerates, size 8” value [1] was 0%, the “percent agglomerates, size 9” value [1] was 0% and the “percent agglomerates, size 10” value [1] was 0%. The “percent free red corpuscles” value [1] was 86%.
With CCOC(=O)C1Cc2sc(Cl)cc2CN1Cc1ccccc1 (centres unmarked) [Example 27, 2-Chloro-5-benzyl-6-ethoxycarbonyl-4,5,6,7-tetrahydro-thieno[3,2-c]pyridine] the “percent agglomerates, size 2” value [1] was 10%, the “percent agglomerates, size 3” value [1] was 3% and the “percent agglomerates, size 4” value [1] was 0%. For the same compound, the “percent agglomerates, size 5” value [1] was 0%, the “percent agglomerates, size 6” value [1] was 0% and the “percent agglomerates, size 7” value [1] was 0%. The “percent agglomerates, size 8” value [1] was 0%, the “percent agglomerates, size 9” value [1] was 0% and the “percent agglomerates, size 10” value [1] was 0%. The “percent free red corpuscles” value [1] was 87%, the “percent agglomerates, size 2” value ([4]; 25 μg) was 16% and the “percent agglomerates, size 3” value ([4]; 25 μg) was 17%. For the same compound, the “percent agglomerates, size 4” value ([4]; 25 μg) was 5%, the “percent agglomerates, size 5” value ([4]; 25 μg) was 0% and the “percent agglomerates, size 6” value ([4]; 25 μg) was 0%. For the same compound, the “percent agglomerates, size 7” value ([4]; 25 μg) was 0%, the “percent agglomerates, size 8” value ([4]; 25 μg) was 0% and the “percent agglomerates, size 9” value ([4]; 25 μg) was 0%. The “percent agglomerates, size 10” value ([4]; 25 μg) was 0%, the “percent agglomerates, size 11” value ([4]; 25 μg) was 0% and the “percent agglomerates, size 12” value ([4]; 25 μg) was 0%. For the same compound, the “percent agglomerates, size 13” value ([4]; 25 μg) was 0%, the “percent free red corpuscles” value ([4]; 25 μg) was 62% and the “percent agglomerates, size 2” value ([4]; 50 μg) was 20%. For the same compound, the “percent agglomerates, size 3” value ([4]; 50 μg) was 10%, the “percent agglomerates, size 4” value ([4]; 50 μg) was 4% and the “percent agglomerates, size 5” value ([4]; 50 μg) was 0%. The “percent agglomerates, size 6” value ([4]; 50 μg) was 0%, the “percent agglomerates, size 7” value ([4]; 50 μg) was 0% and the “percent agglomerates, size 8” value ([4]; 50 μg) was 0%. The “percent agglomerates, size 9” value ([4]; 50 μg) was 0%, the “percent agglomerates, size 10” value ([4]; 50 μg) was 0% and the “percent agglomerates, size 11” value ([4]; 50 μg) was 0%. The “percent agglomerates, size 12” value ([4]; 50 μg) was 0%, the “percent agglomerates, size 13” value ([4]; 50 μg) was 0% and the “percent free red corpuscles” value ([4]; 50 μg) was 66%. For the same compound, the “percent agglomerates, size 2” value ([4]; 100 μg) was 15%, the “percent agglomerates, size 3” value ([4]; 100 μg) was 7% and the “percent agglomerates, size 4” value ([4]; 100 μg) was 3%. The “percent agglomerates, size 5” value ([4]; 100 μg) was 0%, the “percent agglomerates, size 6” value ([4]; 100 μg) was 0% and the “percent agglomerates, size 7” value ([4]; 100 μg) was 0%. For the same compound, the “percent agglomerates, size 8” value ([4]; 100 μg) was 0%, the “percent agglomerates, size 9” value ([4]; 100 μg) was 0% and the “percent agglomerates, size 10” value ([4]; 100 μg) was 0%. The “percent agglomerates, size 11” value ([4]; 100 μg) was 0%, the “percent agglomerates, size 12” value ([4]; 100 μg) was 0% and the “percent agglomerates, size 13” value ([4]; 100 μg) was 0%. The “percent free red corpuscles” value ([4]; 100 μg) was 75%, the “percent agglomerates, size 2” value ([4]; 200 μg) was 9% and the “percent agglomerates, size 3” value ([4]; 200 μg) was 5%. The “percent agglomerates, size 4” value ([4]; 200 μg) was 2%, the “percent agglomerates, size 5” value ([4]; 200 μg) was 0% and the “percent agglomerates, size 6” value ([4]; 200 μg) was 0%. The “percent agglomerates, size 7” value ([4]; 200 μg) was 0%, the “percent agglomerates, size 8” value ([4]; 200 μg) was 0% and the “percent agglomerates, size 9” value ([4]; 200 μg) was 0%. The “percent agglomerates, size 10” value ([4]; 200 μg) was 0%, the “percent agglomerates, size 11” value ([4]; 200 μg) was 0% and the “percent agglomerates, size 12” value ([4]; 200 μg) was 0%. The “percent agglomerates, size 13” value ([4]; 200 μg) was 0% and the “percent free red corpuscles” value ([4]; 200 μg) was 84%.
Work on COc1cc(COC(=O)C2Cc3sccc3CN2Cc2cc(OC)c(OC)c(OC)c2)cc(OC)c1OC (centres unmarked) [Example 17, 5-(3,4,5-Trimethoxy-benzyl)-6-(3,4,5-trimethoxy-benzyl-oxycarbonyl)-4,5,6,7-tetrahydro-thieno[3,2-c]pyridine] yielded an inhibition at 100 mg/kg [2] of 92% and an inhibition at 100 mg/kg [3] of 61.2%.
O=C(OCc1ccc([N+](=O)[O-])cc1)C1Cc2sccc2CN1Cc1ccc([N+](=O)[O-])cc1 (centres unmarked) [Example 15, 5-p-Nitrobenzyl-6-p-nitrobenzyloxycarbonyl-4,5,6,7-tetrahydro-thieno[3,2-c]pyridine] was tested, and the “percent agglomerates, size 2” value [1] was 11%, the “percent agglomerates, size 3” value [1] was 2% and the “percent agglomerates, size 4” value [1] was 0%. For the same compound, the “percent agglomerates, size 5” value [1] was 0%, the “percent agglomerates, size 6” value [1] was 0% and the “percent agglomerates, size 7” value [1] was 0%. The “percent agglomerates, size 8” value [1] was 0%, the “percent agglomerates, size 9” value [1] was 0% and the “percent agglomerates, size 10” value [1] was 0%. For the same compound, the “percent free red corpuscles” value [1] was 87%.
O=C(OCc1ccccc1)C1Cc2sccc2CN1Cc1ccccc1 (centres unmarked) [Example 12, 5-Benzyl-6-benzyloxycarbonyl-4,5,6,7-tetrahydro-thieno[3,2-c]pyridine] was tested, and the inhibition at 100 mg/kg [2] was 90.8% and the inhibition at 100 mg/kg [3] was 61.6%.
In the case of O=C(OCc1ccccc1)[C@H]1[C@@H](O)c2sccc2CN1Cc1ccccc1 (relative stereo) [Example 7, 5-Benzyl-6-benzyloxycarbonyl-7-hydroxy-4,5,6,7-tetrahydro-thieno[3,2-c]pyridine], the “percent agglomerates, size 2” value [1] is reported as 12%, the “percent agglomerates, size 3” value [1] is reported as 3% and the “percent agglomerates, size 4” value [1] is reported as 1%. For the same compound, the “percent agglomerates, size 5” value [1] was 0%, the “percent agglomerates, size 6” value [1] was 0% and the “percent agglomerates, size 7” value [1] was 0%. The “percent agglomerates, size 8” value [1] was 0%, the “percent agglomerates, size 9” value [1] was 0% and the “percent agglomerates, size 10” value [1] was 0%. For the same compound, the “percent free red corpuscles” value [1] was 84%.

— patent US4147787A, “4,5,6,7-Tetrahydro-thieno[2,3-c]-and [3,2-c]-pyridines, and therapeutic compositions containing the same” (Parcor, priority 1977, dated 1979)
